Reference: patent US12180187B2, “1-phenyl-5-azinylpyrazolyl-3-oxyalkyl acids and their use for controlling unwanted plant growth” (BAYER AKTIENGESELLSCHAFT, priority 2019, dated 2024)

Columns and labels:
ECHCG = experiment: Pre-emergence action against ECHCG, 1280 g/ha; assay type: in vivo, Echinochloa crus-galli; conditions: visual scoring after about 3 weeks vs untreated controls, 100% = plants have died, 0% = like control plants; for pest or weed control at 1280 g/ha: Echinochloa crus-galli, 504 h
Method in brief: (§1)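 Pre-emergence pot test: seeds in sandy loam, soil-covered, sprayed on soil surface (WP/EC, 0.5% additive, 600 L/ha water); greenhouse ~3 wk; visual % effect vs untreated, 0–100%.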

POAAN [1] = experiment: Pre-emergence action against POAAN, 1280 g/ha; assay type: in vivo, Poa annua; conditions: visual scoring after about 3 weeks vs untreated controls, 100% = plants have died, 0% = like control plants; for pest or weed control at 1280 g/ha: Poa annua, 504 h
Method in brief: as §1

SETVI [2] = experiment: Pre-emergence action against SETVI, 1280 g/ha; assay type: in vivo, Setaria viridis; conditions: visual scoring after about 3 weeks vs untreated controls, 100% = plants have died, 0% = like control plants; for pest or weed control at 1280 g/ha: Setaria viridis, 504 h
Method in brief: as §1

AMARE [3] = experiment: Pre-emergence action against AMARE, 1280 g/ha; assay type: in vivo, Amaranthus retroflexus; conditions: scored visually after about 3 weeks vs untreated controls (100% = plants have died); for pest or weed control at 1280 g/ha: Amaranthus retroflexus, 504 h
Method in brief: as §1

MATIN = experiment: Pre-emergence action against MATIN, 1280 g/ha; assay type: in vivo, Tripleurospermum inodorum (Matricaria inodora); conditions: scored visually after about 3 weeks vs untreated controls (100% = plants have died); for pest or weed control at 1280 g/ha: Tripleurospermum inodorum, 504 h
Method in brief: as §1

STEME = experiment: Pre-emergence action against STEME, 1280 g/ha; assay type: in vivo, Stellaria media; conditions: scored visually after about 3 weeks vs untreated controls (100% = plants have died); for pest or weed control at 1280 g/ha: Stellaria media, 504 h
Method in brief: as §1

ALOMY [4] = experiment: Pre-emergence action at 320 g/ha against ALOMY; assay type: in vivo, Alopecurus myosuroides; conditions: scored visually after about 3 weeks vs untreated controls (100% = plants have died); for pest or weed control at 320 g/ha: Alopecurus myosuroides, 504 h
Method in brief: (§2)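 Weed seeds sown in pots and covered with soil; compounds formulated as WP or EC were sprayed onto the soil surface as aqueous suspension or emulsion with 0.5% additive at 600 l/ha water. Pots kept in greenhouse; activity scored visually after about 3 weeks versus untreated controls (100% = plants dead, 0% = like control).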

AVEFA = experiment: Pre-emergence action at 320 g/ha against AVEFA; assay type: in vivo; conditions: visual scoring after about 3 weeks vs untreated controls; for pest or weed control at 320 g/ha: Avena fatua, 504 h
Method in brief: as §2

DIGSA = experiment: Pre-emergence action at 320 g/ha against DIGSA; assay type: in vivo, Digitaria sanguinalis; conditions: visual scoring after about 3 weeks vs untreated controls; for pest or weed control at 320 g/ha: Digitaria sanguinalis, 504 h
Method in brief: as §2

SETVI [5] = experiment: Pre-emergence action at 320 g/ha against SETVI; assay type: in vivo, Setaria viridis; conditions: visual scoring after about 3 weeks vs untreated controls; for pest or weed control at 320 g/ha: Setaria viridis, 504 h
Method in brief: as §2

AMARE [6] = experiment: Pre-emergence action at 320 g/ha against AMARE; assay type: in vivo, Amaranthus retroflexus; conditions: visual scoring after about 3 weeks vs untreated controls; for pest or weed control at 320 g/ha: Amaranthus retroflexus, 504 h
Method in brief: as §2

POLCO = experiment: Pre-emergence action at 320 g/ha against POLCO; assay type: in vivo, Fallopia convolvulus (Polygonum convolvulus); conditions: visual scoring after about 3 weeks vs untreated controls; for pest or weed control at 320 g/ha: Fallopia convolvulus, 504 h
Method in brief: as §2

VERPE = experiment: Pre-emergence action at 320 g/ha against VERPE; assay type: in vivo, Veronica persica; conditions: visual scoring after about 3 weeks vs untreated controls; for pest or weed control at 320 g/ha: Veronica persica, 504 h
Method in brief: as §2

POAAN [7] = experiment: Post-emergence action against POAAN, 1.28 kg/ha; assay type: in vivo, Poa annua; conditions: dosage 1280 g/ha, visual rating about 3 weeks after treatment vs untreated controls; for pest or weed control at 1280 g/ha: Poa annua, 504 h
Method in brief: (§3)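 Spray at one-leaf stage with WP/EC + 0.5% additive, 600 L water/ha. Greenhouse, optimum conditions, ~3 wk. Visual % control vs untreated; 0 = no effect, 100 = dead.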

ALOMY [8] = experiment: Post-emergence action against ALOMY, 1.28 kg/ha; assay type: in vivo, Alopecurus myosuroides; conditions: dosage 1280 g/ha, visual rating about 3 weeks after treatment vs untreated controls
Method in brief: as §3

| SMILES | Pre-emergence action against ECHCG (ECHCG) | Pre-emergence action against POAAN (POAAN [1]) | Pre-emergence action against SETVI (SETVI [2]) | Pre-emergence action against AMARE (AMARE [3]) | Pre-emergence action against MATIN (MATIN) | Pre-emergence action against STEME (STEME) | Pre-emergence action at 320 g/ha against ALOMY in % (ALOMY [4]) | Pre-emergence action against DIGSA in % (DIGSA) | Pre-emergence action against SETVI in % (SETVI [5]) | Pre-emergence action against AMARE in % (AMARE [6]) | Pre-emergence action against POLCO in % (POLCO) | Post-emergence action against ALOMY (ALOMY [8]) | Post-emergence action against POAAN (POAAN [7]) | Pre-emergence action against VERPE in % (VERPE) | also measured |
| --- | --- | --- | --- | --- | --- | --- | --- | --- | --- | --- | --- | --- | --- | --- | --- |
| C=CCNC(=O)COc1nn(-c2ccccc2F)c(-c2ccc(F)nc2)c1Br [Example X-001, N-Allyl-2-{[4-bromo-1-(2-fluorophenyl)-5-(6-fluoropyridin-3-yl)-1H-pyrazol-3-yl]oxy}acetamide] |  |  |  |  |  |  |  |  |  |  |  |  |  |  | pest or weed control at 1280 g/ha (ECHCG): 100%; pest or weed control at 1280 g/ha (POAAN [1]): 100%; pest or weed control at 1280 g/ha (SETVI [2]): 100%; pest or weed control at 1280 g/ha (AMARE [3]): 100%; pest or weed control at 1280 g/ha (MATIN): 90%; pest or weed control at 1280 g/ha (STEME): 100%; pest or weed control at 320 g/ha (ALOMY [4]): 100%; pest or weed control at 320 g/ha (AVEFA): 90%; pest or weed control at 320 g/ha (DIGSA): 100%; pest or weed control at 320 g/ha (SETVI [5]): 100%; pest or weed control at 320 g/ha (AMARE [6]): 90%; pest or weed control at 320 g/ha (POLCO): 90%; pest or weed control at 320 g/ha (VERPE): 80%; pest or weed control at 1280 g/ha (POAAN [7]): 100% |
| COC(=O)COc1nn(-c2ccccc2F)c(-c2cncnc2)c1Br [VI-004, Methyl {[4-bromo-1-(2-fluorophenyl)-5-(pyrimidin-5-yl)-1H-pyrazol-3-yl]oxy}acetate] |  |  |  |  |  |  |  |  |  |  |  |  |  |  | pest or weed control at 1280 g/ha (ECHCG): 100%; pest or weed control at 1280 g/ha (POAAN [1]): 100%; pest or weed control at 1280 g/ha (SETVI [2]): 100%; pest or weed control at 1280 g/ha (AMARE [3]): 100%; pest or weed control at 1280 g/ha (MATIN): 100%; pest or weed control at 1280 g/ha (STEME): 100%; pest or weed control at 320 g/ha (ALOMY [4]): 100%; pest or weed control at 320 g/ha (AVEFA): 90%; pest or weed control at 320 g/ha (DIGSA): 100%; pest or weed control at 320 g/ha (SETVI [5]): 90%; pest or weed control at 320 g/ha (AMARE [6]): 100%; pest or weed control at 320 g/ha (POLCO): 90%; pest or weed control at 320 g/ha (VERPE): 100%; pest or weed control at 1280 g/ha (POAAN [7]): 100% |
| COC(=O)[C@@H](C)Oc1nn(-c2ccccc2)c(-c2cncnc2)c1Br [VI-013] | 100% | 100% | 100% | 100% | 90% | 100% | 90% | 100% | 100% | 90% | 90% | 100% | 100% |  |  |
| COC(=O)COc1nn(-c2ccc(F)cc2)c(-c2ccc(F)nc2)c1Br [VII-002] | 100% | 100% | 100% | 100% | 90% | 100% | 90% | 100% | 90% | 100% | 100% |  | 100% | 100% | Pre-emergence action against AVEFA in % (AVEFA): 80% |
| COC(=O)C(C)Oc1nn(-c2ccccc2)c(-c2ccc(F)nc2)c1Br (stereo not shown) [VII-026] | 90% | 100% | 100% | 100% | 90% | 90% | 100% | 100% | 80% | 100% | 100% | 100% | 100% | 80% |  |
| COC(=O)COc1nn(-c2ccc(F)cc2)c(-c2cccnc2)c1Br [VII-028] | 100% | 100% | 100% | 90% | 100% | 100% | 100% | 90% | 100% | 90% | 90% |  | 90% | 100% |  |
| CCC(Oc1nn(-c2ccccc2F)c(-c2ccc(F)nc2)c1Br)C(=O)OC (stereo not shown) [VII-029] | 100% | 100% | 100% | 100% | 100% | 100% | 90% | 100% | 90% | 100% | 100% | 100% | 100% | 100% |  |
| CCOC(=O)COc1nn(-c2ccccc2F)c(-c2ccc(F)nc2)c1I [VII-036] | 100% | 100% | 100% | 100% | 100% | 100% | 100% | 100% | 100% | 100% | 100% | 100% | 100% | 100% |  |
| CCOC(=O)C(C)Oc1nn(-c2ccccc2F)c(-c2ccc(F)nc2)c1I (stereo not shown) [VII-057] | 100% | 100% | 100% | 100% | 100% | 100% | 100% | 100% | 90% | 100% | 90% | 100% | 100% |  | Pre-emergence action against AVEFA in % (AVEFA): 90% |
| O=C(O)COc1nn(-c2ccccc2F)c(-c2ccnc(F)c2)c1Br [VIII-004] | 100% | 100% | 100% | 100% | 100% | 100% | 100% | 100% | 90% | 100% | 90% |  | 100% | 100% |  |
| COC(=O)[C@@H](C)Oc1nn(-c2ccccc2F)c(-c2ccnc(F)c2)c1Br [VIII-006] | 100% | 100% | 100% | 100% | 100% | 100% | 100% | 100% | 100% | 100% | 90% | 100% | 100% |  | Pre-emergence action against AVEFA in % (AVEFA): 80% |
